This note sets out measurements from ChEMBL document CHEMBL4665660, “A novel indirubin derivative that increases somatic cell plasticity and inhibits tumorigenicity” (Bioorg Med Chem, 2019).

Active and inactive are the calls of the source. The rule behind the calls is not given here.

Series [1] in a line: Induction of cellularization in human primary myotube assessed as alpha-tubulin level at 5 uM in presence of reversine incubated for 72 hrs by Western blot analysis (reference value: 0.674). The format is functional.
Series [2] is described as follows: Induction of cellularization in human primary myotube assessed as beta-actin level at 5 uM in presence of reversine incubated for 72 hrs by Western blot analysis (reference value: 1.095). It counts as tissue-based.
The nature of series [3]: Induction of cellularization in human primary myotube assessed as beta-actin level at 100 nM in presence of BIO incubated for 72 hrs by Western blot analysis (reference value: 1.095). Conditions: 0.1 µM. The format is tissue-based.
A short description of series [4]: Induction of cellularization in human primary myotube assessed as alpha-tubulin level at 100 nM in presence of BIO incubated for 72 hrs by Western blot analysis (reference value: 0.674). The format is functional.
Series [5] relates to NIH3T3. Description: Adipogenic activity in mouse NIH/3T3 cells assessed as increase in lipid accumulation at 1 uM preincubated for 72 hrs followed by incubation with adipogenic factors for 10 days by Oil red O staining based light microscopy. The format is functional, cell-based. The settings on record: time 13.0 day.
The subject of series [6] is C2C12. Description: Osteogenic activity in mouse C2C12 cells assessed as increase in mineralization at 1 uM preincubated for 72 hrs followed by incubation with osteogenic factor for 10 days. The format is functional, cell-based. The settings on record: time 13.0 day.
The nature of series [7]: Toxicity in zebra fish embryo assessed as skeletal abnormalities at 20 to 40 uM. Further details: species or system Danio rerio. The settings on record: zebrafish, dose 20-40 µM.
In series [8] the test system is C2C12. As to the kind of experiment: Osteogenic activity in mouse C2C12 cells assessed as increase in alkaline phosphatase at 1 uM preincubated for 72 hrs followed by incubation with osteogenic factor for 10 days by fluorescence based assay. The settings on record: time 13.0 day. It counts as functional, cell-based.
Series [9] deals with HCT-116. As to the kind of experiment: Induction of apoptosis in human HCT-116 cells assessed as cleaved PARP at 500 nM incubated for 72 hrs by Western blot assay (reference value: 1.127). It counts as functional.
Series [10] concerns NIH3T3. Description: Adipogenic activity in mouse NIH/3T3 cells assessed as […] in epinephrine-stimulated fatty acid release at 1 uM preincubated for 72 hrs followed by incubation with adipogenic factors for 10 days by colorimetric assay. It counts as functional, cell-based.
In series [11] the test system is MDA-MB-231. Description: Induction of apoptosis in human MDA-MB-231 cells assessed as cleaved PARP at 500 nM incubated for 72 hrs by Western blot assay (reference value: 0.519). The format is functional.
Series [12] has as its system NIH3T3. As to the kind of experiment: Downregulation of alpha-SMA in mouse NIH-3T3 cells at 1 uM incubated for 72 hrs by Western blotting assay. It counts as functional, cell-based.
In series [13] the test system is MDA-MB-231. Description: Antimetastatic activity in human MDA-MB-231 cells xenografted in zebra fish at 10 uM incubated for 96 hrs by fluorescence microscopy. It counts as functional, cell-based.
Series [14] is described as follows: Induction of cellularization in human primary myotube assessed as beta-actin level at 1 uM incubated for 72 hrs by Western blot analysis (reference value: 1.095). The format is tissue-based.
In series [15] the test system is MDA-MB-231. As to the kind of experiment: Induction of apoptosis in human MDA-MB-231 cells assessed as cleaved caspase-7 at 500 nM incubated for 72 hrs by Western blot assay (reference value: 0.349). It counts as functional.
In series [16] the test system is NIH3T3. Description: Adipogenic activity in mouse NIH/3T3 cells assessed as increase in insulin-stimulated glucose uptake at 1 uM preincubated for 72 hrs followed by incubation with adipogenic factors for 10 days by […] probe based fluorescence assay. It counts as functional, cell-based. Conditions: time 13.0 day.
Series [17] concerns C2C12. Description: Osteogenic activity in mouse C2C12 cells assessed as increase in osteoponin-expression at 1 uM preincubated for 72 hrs followed by incubation with osteogenic factor for 10 days by RT-PCR analysis. It counts as functional, cell-based. The settings on record: time 13.0 day.
Series [18] is described as follows: Induction of cellularization in human primary myotube assessed as alpha-tubulin level at 1 uM incubated for 72 hrs by Western blot analysis (reference value: 0.674). The format is functional.
For series [19], the system named is NIH3T3. Description: Downregulation of alpha-SMA in mouse NIH/3T3 cells at 1 uM incubated for 72 hrs by immunofluorescence microscopy. The format is functional, cell-based.
A short description of series [20]: Toxicity in zebra fish embryo assessed as reduction in swimming ability at 20 to 40 uM. On the set-up: species or system Danio rerio. The settings on record: zebrafish, dose 20-40 µM.
Series [21] has as its target Glycogen synthase kinase-3 beta (Homo sapiens) (UniProt P49841). As to the kind of experiment: Inhibition of GSK3beta (unknown origin) using PASVPPSPSLSRHSSPHQpSED as substrate preincubated for 10 mins followed by substrate addition and measured after 30 mins by TR-FRET assay. Conditions: time 40.0 mins.
Series [22] has as its system C2C12. Description: Induction of cell cycle arrest in mouse C2C12 cells assessed as G2/M phase at 1 uM incubated for 72 hrs by propidium iodide based flow cytometry (reference value: 19.3 %). The format is functional.
The test system of series [23] is C2C12 (Mus musculus). As to the kind of experiment: Induction of cellularization in mouse C2C12 myotube at 1 uM incubated for 72 hrs by microscopic analysis.
For series [24], the system named is C2C12 (Mus musculus). As to the kind of experiment: Induction of cellularization in mouse C2C12 myotube assessed as reduction in cell proliferation at 1 uM incubated for 72 hrs by EdU staining based inverted fluorescence microscopy.
Series [25] concerns HCT-116. As to the kind of experiment: Induction of apoptosis in human HCT-116 cells assessed as cleaved caspase-7 at 500 nM incubated for 72 hrs by Western blot assay (reference value: 0). It counts as functional.
For series [26], the target named is T1, Aurora kinase A (Homo sapiens) (UniProt O14965).
T1 sequence (whole entry): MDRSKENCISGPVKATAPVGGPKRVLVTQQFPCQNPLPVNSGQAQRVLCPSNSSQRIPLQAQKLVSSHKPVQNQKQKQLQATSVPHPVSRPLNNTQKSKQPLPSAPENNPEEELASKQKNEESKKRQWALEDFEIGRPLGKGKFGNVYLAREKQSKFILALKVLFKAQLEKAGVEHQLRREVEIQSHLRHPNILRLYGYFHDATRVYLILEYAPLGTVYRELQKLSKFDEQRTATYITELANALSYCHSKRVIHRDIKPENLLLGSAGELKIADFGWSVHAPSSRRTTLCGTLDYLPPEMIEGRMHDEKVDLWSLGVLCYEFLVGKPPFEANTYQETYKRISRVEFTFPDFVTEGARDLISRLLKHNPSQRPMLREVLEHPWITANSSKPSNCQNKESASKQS
As to the kind of experiment: Inhibition of recombinant human N-terminal His-tagged Aurora A expressed in Sf21 cells using peptide substrate by TR-FRET assay.

For series [27], the system named is MDA-MB-231. As to the kind of experiment: Inhibition of cell invasion in human MDA-MB-231 cells at 50 nM incubated for 72 hrs by crystal violet staining based assay. The format is functional.
Series [28] concerns C2C12. As to the kind of experiment: Induction of cell cycle arrest in mouse C2C12 cells assessed as S phase at 1 uM incubated for 72 hrs by propidium iodide based flow cytometry (reference value: 10.5 %). It counts as functional.
The nature of series [29]: Toxicity in zebra fish embryo assessed as reduction in cell viability at 40 uM. Further details: species or system Danio rerio. The settings on record: zebrafish.
Series [30] deals with Glycogen synthase kinase-3 beta (Homo sapiens) (UniProt P49841). Description: Inhibition of GSK3beta (unknown origin) using PASVPPSPSLSRHSSPHQpSED as substrate at 1 uM preincubated for 10 mins followed by substrate addition and measured after 30 mins by TR-FRET assay relative to control.
Series [31] has as its system C2C12. As to the kind of experiment: Induction of cell cycle arrest in mouse C2C12 cells assessed as G1 phase at 1 uM incubated for 72 hrs by propidium iodide based flow cytometry (reference value: 61.2 %). The format is functional.
Series [32] concerns MDA-MB-231. Description: Cytotoxicity against human MDA-MB-231 cells assessed as reduction in cell viability incubated for 72 hrs by MTT assay. The format is functional, cell-based. The settings on record: MDA-MB-231, 72 h.
For series [33], the target named is T1, Aurora kinase A (Homo sapiens). As to the kind of experiment: Inhibition of recombinant human N-terminal His-tagged Aurora A expressed in Sf21 cells using peptide substrate at 1 uM by TR-FRET assay relative to control.
The test system of series [34] is C2C12. Description: Osteogenic activity in mouse C2C12 cells assessed as increase in plasticity at 1 uM preincubated for 72 hrs followed by incubation with osteogenic factor for 10 days by Alizarin red staining based light microscopy. The format is functional, cell-based. Conditions: time 13.0 day.
Series [35] relates to HCT-116. As to the kind of experiment: Cytotoxicity against human HCT-116 cells assessed as reduction in cell viability incubated for 72 hrs by MTT assay. The format is functional, cell-based. Conditions: HCT-116, 72 h.
The nature of series [36]: Induction of cellularization in human primary myotube assessed as beta-actin level at 20 uM incubated for 72 hrs by Western blot analysis (reference value: 1.095). It counts as tissue-based.
A short description of series [37]: Induction of cellularization in human primary myotube assessed as alpha-tubulin level at 20 uM incubated for 72 hrs by Western blot analysis (reference value: 0.674). The format is functional.

Glycogen synthase kinase-3 beta (Homo sapiens), sequence (P49841 whole entry, looked up): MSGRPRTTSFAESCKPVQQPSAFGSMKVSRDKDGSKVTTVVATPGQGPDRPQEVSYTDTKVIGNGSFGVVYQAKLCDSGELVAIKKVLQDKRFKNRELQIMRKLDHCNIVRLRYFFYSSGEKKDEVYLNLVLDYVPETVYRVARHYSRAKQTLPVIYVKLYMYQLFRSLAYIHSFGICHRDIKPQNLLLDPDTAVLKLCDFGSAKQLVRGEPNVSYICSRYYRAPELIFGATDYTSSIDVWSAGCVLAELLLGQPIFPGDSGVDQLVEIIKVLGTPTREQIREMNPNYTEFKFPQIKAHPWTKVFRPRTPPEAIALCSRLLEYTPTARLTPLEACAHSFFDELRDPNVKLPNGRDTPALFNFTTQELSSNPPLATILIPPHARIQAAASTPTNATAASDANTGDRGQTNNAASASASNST

For `O=C1Nc2cc(Br)ccc2/C1=C1/Nc2ccccc2/C1=N\O` [6BIO], the “fold change (FC)” value is reported as 0.758 in [1] and 1.388 in [2].
On to `COC(=O)[C@H]1[C@H]2C[C@@H]3c4[nH]c5cc(OC)ccc5c4CCN3C[C@H]2C[C@@H](OC(=O)c2cc(OC)c(OC)c(OC)c2)[C@@H]1OC` [RESERPINE], for which the figures for the “fold change (FC)” value in series [3] and in [4] were 1.388 and 0.758, respectively.
`Cl.NCCO/N=C1/C(=C2/C(=O)Nc3ccc([N+](=O)[O-])cc32)Nc2ccc(O)cc21`: the result in series [5], in series [6], in series [8], in series [10], in [12] and in [13] was Active. The outcome in series [16], in [17], in [19], in series [23], in [24] and in series [34] was Active. The Activity entry in [7] is recorded as “Toxic”; in series [20], “Toxic”; in series [22] it was 35%; in series [28] it was 18%; in series [29], “Toxic”; in series [31], 33.6%. Further, the “fold change (FC)” value in series [9] was found to be 1.129; in series [11], 1.962; in series [14], 1.451; in series [15] it was 0.674; in series [18] it was 1.064; in series [25] it was 1.115. The inhibition result in [21] is “Dose-dependent effect”; in series [26] it was “Dose-dependent effect”; in series [30], 99.8%; in [33], 47.7%. Also, the inhibition entry in [27] was “Active”. In addition, the values for the half-inhibitory concentration (IC50) in series [32] and in series [35] were 738 nM and 302 nM, respectively.
As for `COc1ccc(CNc2nc(NCc3ccc(OC)cc3)c3ncn(C(C)C)c3n2)cc1` [MYOSEVERIN], the “fold change (FC)” value in series [36] is given as 1.139; in series [37] it was 0.
